Measurements published in patent publication US9161946B2, “Dosing methods for treating disease” (Anadys Pharmaceuticals, Inc., priority 2007, dated 2015).

What was measured:
Format in all cases: in vivo, cynomolgus macaques
neopterin = assay: Neopterin level in plasma, ELISA; conditions: QD schedule, 7 consecutive days, FIG. 1C (100 mg/kg)
Description: (§1) The pharmacodynamic response of a continuous daily dosing schedule (QD) was compared to a cyclic dosing schedule of every-other-day (QOD) and a cyclic dosing schedule of 3 consecutive days of dosing followed by 4 consecutive days of resting (‘3 on 4 off’). All three dosing schedules were conducted with orally administered Compound I Tosylate. Immune parameters measured include cytokine and chemokine secretion in plasma measured by multiplexed immunoassay, neopterin levels in plasma measured by Enzyme Linked Immunosorbant Assay (ELISA), and cytotoxic T cell (CD8 T) effector proliferative state and B cell proliferative state in peripheral blood leukocytes as measured by flow cytometry analysis of Ki67 levels.
(§2) Cynomolgus macaques were given either 30 mg/kg or 100 mg/kg of Compound I as the tosylate or 2 mg/kg 852A for 7 consecutive days of QD dosing followed by 7 days of additional monitoring. The immune response was determined by measuring cytokine and neopterin levels in plasma, as well as B cell and T cell responses in peripheral blood.

IFN-α = IFN-α level in plasma after oral dosing, multiplexed immunoassay; conditions: for Mean Concentration of IFN-α: oral; for IFN-α levels on the third day of the cycle: 3 on 4 off, 100 mg/kg, average±SEM, n=4
Description: as §1
Cynomolgus macaques were given 10, 30, 100 or 300 mg/kg (Compound I equivalents) of Compound I Tosylate according to an every-other-day dosing schedule for 14 days, 28 days, or 13 weeks followed by recovery periods of various lengths. The immune response was determined by measuring cytokine and neopterin levels in plasma, as well as B cell and T cell responses in peripheral blood.
as §2, with “according to a dosing schedule of 3” for “or 2 mg/kg 852A for 7”, “of” for “of QD”, “4 consecutive” for “7”, “resting (‘3 on 4 off’) over 3 or 8 weeks.” for “additional monitoring.”
as §2

[1] = system: B cell in peripheral blood leukocytes; assay: B cell proliferative state, flow cytometry of Ki67; conditions: 3 on 4 off schedule, repeated courses, FIG. 4B (100 mg/kg)
Description: as §1
as §2, with “according to a dosing schedule of 3” for “or 2 mg/kg 852A for 7”, “of” for “of QD”, “4 consecutive” for “7”, “resting (‘3 on 4 off’) over 3 or 8 weeks.” for “additional monitoring.”

[2] = system: cytotoxic T cell (CD8 T) in peripheral blood leukocytes; assay: Cytotoxic T cell (CD8 T) effector proliferative state, flow cytometry of Ki67; conditions: 3 on 4 off schedule, FIG. 3B (100 mg/kg)
Description: as §1
as §2, with “according to a dosing schedule of 3” for “or 2 mg/kg 852A for 7”, “of” for “of QD”, “4 consecutive” for “7”, “resting (‘3 on 4 off’) over 3 or 8 weeks.” for “additional monitoring.”

IL-12 = IL-12 in plasma after 3rd dose, multiplexed immunoassay; conditions: after 3rd dose of 100 mg/kg, pre-treatment subtracted, p<0.05
Text: (§3) Each point indicates an individual animal. Fine lines indicate geometric mean. * indicates significant difference (p<0.05) between pre-treatment and post-dose values; ns: not significant. Non-responders are defined as animals with baseline interferon-α values after both the 1st and 2nd doses. Three such animals were excluded in the QOD group (n=7 final). No animals were excluded from the QD group (n=20 final).
as §1, with “All three dosing schedules were conducted with orally administered Compound I Tosylate.” left out, “levels. […]” for “levels.”
as §2

TNF-α = TNF-α in plasma after 3rd dose, multiplexed immunoassay; conditions: after 3rd dose of 100 mg/kg, QD (D3) versus QOD (D5)
Text: as §3
as §1, with “All three dosing schedules were conducted with orally administered Compound I Tosylate.” left out, “levels. […]” for “levels.”
as §2

IL-6 = IL-6 in plasma after 3rd dose, multiplexed immunoassay; conditions: after 3rd dose of 100 mg/kg
Text: as §3
as §1, with “All three dosing schedules were conducted with orally administered Compound I Tosylate.” left out, “levels. […]” for “levels.”
as §2

MCP-1 = MCP-1 in plasma after 3rd dose, multiplexed immunoassay; conditions: after 3rd dose of 100 mg/kg, pre-treatment subtracted, p<0.05
Text: as §3
as §1, with “All three dosing schedules were conducted with orally administered Compound I Tosylate.” left out, “levels. […]” for “levels.”
as §2

[3] = QD schedule, 100 mg/kg per dose, p<0.05

CC(=O)O[C@@H]1C[C@@H](CO)O[C@H]1n1c(=O)sc2cnc(N)nc21.Cc1ccc(S(=O)(=O)O)cc1 [Compound I Tosylate]
Time of peak neopterin level before decline (neopterin): 3-4 days of dosing | IFN-α level at day 7 for QOD higher than on day 7 for QD (IFN-α; 100 mg/kg per dose, p<0.05): 15.8 fold | IFN-α levels in plasma after 6 doses (IFN-α; 3 on 4 off schedule, day 3 in the second cycle, 100 mg/kg (Compound I equivalents)): 3832±1329 | IFN-α response on day 7 lower than response on day 1 (IFN-α; QD schedule, 100 mg/kg per dose): 3.3 fold | IFN-α levels on day 5 compared to day 3 (IFN-α; [3]): significantly reduced | IFN-α levels on day 7 compared to day 3 (IFN-α; [3]): significantly reduced | Time of peak IFN-α level before decline (IFN-α; QD schedule, 7 consecutive days, FIG. 1C (100 mg/kg)): 3-4 days of dosing | IFN-α levels in plasma after 6 doses (IFN-α; QD schedule, Day 6, 100 mg/kg (Compound I equivalents)): 922±739 | B cell proliferative state as measured by Ki67 levels [1]: enhanced | T cell responses over repeated courses [2]: either maintained or enhanced

CC(=O)O[C@@H]1C[C@@H](CO)O[C@H]1n1c(=O)sc2cnc(N)nc21 [Compound I, 5-amino-3-(2′-O-acetyl-3′-deoxy-beta-D-ribofuranosyl)-3H-thiazolo[4,5-d]pyrimidin-2-one]
Level of IL-12 expressed relative to IFN-α, QD compared to QOD (IL-12): significantly higher | TNF-α induction versus pre-treatment (TNF-α): significantly induced (p<0.05) by the QD, but not by the QOD schedule | Mean Concentration of IFN-α (IFN-α; 3 on 4 off schedule, Day 1, 100 mg/kg per dose as tosylate salt, 3 hours after dosing, mean ± SEM, pre-treatment subtracted): 175 ± 69 pg/mL | Mean Concentration of IFN-α (IFN-α; 3 on 4 off schedule, Day 3, 100 mg/kg per dose as tosylate salt, 3 hours after dosing, mean ± SEM, pre-treatment subtracted): 4192 ± 768 pg/mL | Mean Concentration of IFN-α (IFN-α; 3 on 4 off schedule, Day 5 (resting day, no dose), 100 mg/kg per dose as tosylate salt): Baseline* | Mean Concentration of IFN-α (IFN-α; 3 on 4 off schedule, Day 7 (resting day, no dose), 100 mg/kg per dose as tosylate salt): Baseline* | IFN-α levels on the third day of the cycle (IFN-α; first cycle): 4192±768 | IFN-α levels on the third day of the cycle (IFN-α; second cycle): 3832±1329 | IFN-α levels on the third day of the cycle (IFN-α; third cycle): 3879±1140 | Mean Concentration of IFN-α (IFN-α; QD schedule, Day 1, 100 mg/kg per dose as tosylate salt, 3 hours after dosing, mean ± SEM, pre-treatment subtracted): 498 ± 252 pg/mL | Mean Concentration of IFN-α (IFN-α; QD schedule, Day 3, 100 mg/kg per dose as tosylate salt, 3 hours after dosing, mean ± SEM, pre-treatment subtracted): 8057 ± 1566 pg/mL | Mean Concentration of IFN-α (IFN-α; QD schedule, Day 5, 100 mg/kg per dose as tosylate salt, 3 hours after dosing, mean ± SEM, pre-treatment subtracted): 2166 ± 615 pg/mL | Mean Concentration of IFN-α (IFN-α; QD schedule, Day 7, 100 mg/kg per dose as tosylate salt, 3 hours after dosing, mean ± SEM, pre-treatment subtracted): 151 ± 105 pg/mL | Mean Concentration of IFN-α (IFN-α; QOD schedule, Day 1, 100 mg/kg per dose as tosylate salt, 3 hours after dosing, mean ± SEM, pre-treatment subtracted): 1293 ± 513 pg/mL | Mean Concentration of IFN-α (IFN-α; QOD schedule, Day 3, 100 mg/kg per dose as tosylate salt, 3 hours after dosing, mean ± SEM, pre-treatment subtracted): 1459 ± 634 pg/mL | Mean Concentration of IFN-α (IFN-α; QOD schedule, Day 5, 100 mg/kg per dose as tosylate salt, 3 hours after dosing, mean ± SEM, pre-treatment subtracted): 1816 ± 1012 pg/mL | Mean Concentration of IFN-α (IFN-α; QOD schedule, Day 7, 100 mg/kg per dose as tosylate salt, 3 hours after dosing, mean ± SEM, pre-treatment subtracted): 2375 ± 982 pg/mL | IL-6 induction versus pre-treatment (IL-6; QD (D3) versus QOD (D5)): significantly induced (p<0.05) by the QD, but not by the QOD schedule | Level of IL-6 expressed relative to IFN-α, QD compared to QOD (IL-6; pre-treatment subtracted, p<0.05): significantly higher | Level of MCP-1 expressed relative to IFN-α, QD compared to QOD (MCP-1): significantly higher
